# Laboratory results: US8999966B2, “Compounds that are ERK inhibitors” (Merck Sharp & Dohme Corp., priority 2010, dated 2015)
# Molecular target: fully phosphorylated, active Mouse ERK2 protein (Mus musculus, UniProt P63085)
# Test: Active ERK2 assay (AERK2), IMAP format
# Format: biochemical
# Settings: activated ERK2, IMAP fluorescence polarization, 30 μM ATP
# Description: 14 μl of kinase buffer (10 mM Tris.HCl pH 7.2, 10 mM MgCl2, 0.01% Tween-20, 1 mM DTT) containing 0.4 ng unphosphorylated Mouse ERK2 protein can be added to each well of a black 384-well assay plate. […] DMSO concentration during initial incubation is 6.7%. ERK2 activity can be determined to be insensitive to DMSO concentrations up to 20%. ERK2 can then be activated and it's kinase activity can be measured by the addition of 10 μl kinase buffer with the following components (final concentration per reaction): 2 ng active (phosphorylated) human MEK1 protein and 4 μM (total) ERK2 IMAP substrate peptides (3.9 μM unlabeled IPTTPITTTYFFFK-CONH2 and 100 nM IPTTPITTTYFFFK(5-carboxyfluorescein)-CONH2) and 30 μM ATP. DMSO concentration during ERK activation can be 4%. After one hour, reactions can be terminated by addition of 60 μl IMAP detections beads in binding buffer (Molecular Devices). Binding can be allowed to equilibrate for 30 minutes before reading the plate on an LJL Analyst Fluorescence Polarization plate reader. […] Active compounds can be reconfirmed in an independent assay.
# Activated ERK2 activity was also determined in the IMAP assay format using the procedure outlined above. 1 μl of 25× compound was added to 14 μl of kinase buffer containing 0.25 ng fully phosphorylated, active Mouse ERK2 protein. Following a 30 minute incubation, the reactions were initiated by addition of 10 μl of kinase buffer containing 1 μM ERK2 IMAP substrate peptide (0.9 μM unlabeled IPTTPITTTYFFFK-CONH2 and 100 nM IPTTPITTTYFFFK(5-carboxyfluorescein)-CONH2) and 30 μM ATP. Reactions proceeded for 30 minutes before termination by addition of 60 μl IMAP detection beads in binding buffer. Plates were read as above after 30 minute binding equilibration. Active compounds were reconfirmed in an independent assay.
# Chain of fully phosphorylated, active Mouse ERK2 protein (P63085 whole entry): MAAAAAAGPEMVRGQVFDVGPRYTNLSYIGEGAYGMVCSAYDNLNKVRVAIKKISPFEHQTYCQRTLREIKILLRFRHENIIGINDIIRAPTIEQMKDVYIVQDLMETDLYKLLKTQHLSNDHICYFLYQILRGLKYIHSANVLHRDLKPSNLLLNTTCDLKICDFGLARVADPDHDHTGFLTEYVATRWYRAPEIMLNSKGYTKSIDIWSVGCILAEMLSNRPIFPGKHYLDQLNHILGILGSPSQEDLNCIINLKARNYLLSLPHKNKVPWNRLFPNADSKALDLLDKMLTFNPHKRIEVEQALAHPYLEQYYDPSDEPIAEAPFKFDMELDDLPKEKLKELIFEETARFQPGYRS
row,IC50 [nM],SMILES
1,> 1000,"Cn1cc2cc(-c3n[nH]c4ccc(-c5nnc([C@@H]6CCCN(Cc7cc8ccccc8n7C)C6)o5)cc34)ccc2n1 [Example 321, 3-(2-METHYL-2H-INDAZOL- 5-YL)-5-[5-[1-[(1-METHYL- 1H-INDOL-2-YL)METHYL]- 3(R)-PIPERIDINYL]-1,3,4- OXADIAZOL-2-YL]-1H- INDAZOLE]"
2,> 1000,"Fc1cccc(F)c1CN1CCCC(c2ccn(-c3ccc4[nH]nc(-c5ccncc5)c4c3)n2)C1 (stereo not shown) [Example 367, 5-[3-[1-[(2,6- DIFLUOROPHENYL)METHYL]- 3-PIPERIDINYL]-1H- PYRAZOL-1-YL]-3-(4- PYRIDINYL)-1H-INDAZOLE]"
3,> 1000,"CCn1cc(-c2n[nH]c3ccc(-c4nnc([C@@H]5CCCN(Cc6cc(F)c(Cl)cc6Cl)C5)o4)cc23)cn1 [Example 345, 5-[5-[1-[(2,4-DICHLORO-5- FLUOROPHENYL)METHYL]- 3(R)-PIPERIDINYL]-1,3,4- OXADIAZOL-2-YL]-3-(1- ETHYL-1H-PYRAZOL-4-YL)- 1H-INDAZOLE]"
4,≥ 504,"Fc1cc(CN2CCC[C@@H](c3nnc(-c4ccc5[nH]nc(-c6ccnc(Cl)c6)c5c4)o3)C2)c(Cl)cc1Cl [Example 358, 3-(2-CHLORO-4-PYRIDINYL)- 5-[5-[1-[(2,4-DICHLORO-5- FLUOROPHENYL)METHYL]- 3(R)-PIPERIDINYL]-1,3,4- OXADIAZOL-2-YL]-1H- INDAZOLE]"
5,0.3 to 10.4,"COc1cccc(F)c1CN1CCC[C@@H](c2nnc(-c3ccc4[nH]nc(-c5ccc6nn(C)cc6c5)c4c3)o2)C1 [Example 322, 5-[5-[1-[(2-FLUORO-6- METHOXYPHENYL)METHYL]- 3(R)-PIPERIDINYL]-1,3,4- OXADIAZOL-2-YL]-3-(2- METHYL-2H-INDAZOL-5- YL)-1H-INDAZOLE]"
6,≥ 504,"c1csc(CN2CCC[C@@H](c3nc(-c4ccc5[nH]nc(-c6ccc7c(c6)CCO7)c5c4)n[nH]3)C2)c1 [Example 298, 3-(2,3-DIHYDRO-5- BENZOFURANYL)-5-[5-[1-(2- THIENYLMETHYL)-3(R)- PIPERIDINYL]-1H-1,2,4- TRIAZOL-3-YL]-1H- INDAZOLE]"
7,≥ 504,"Fc1ccccc1CN1CCC[C@@H](c2nnc(-c3ccc4[nH]nc(-c5ccnc(Cl)c5)c4c3)o2)C1 [Example 353, 3-(2-CHLORO-4-PYRIDINYL)- 5-[5-[1-[(2- FLUOROPHENYL)METHYL]- 3(R)-PIPERIDINYL]-1,3,4- OXADIAZOL-2-YL]-1H- INDAZOLE]"
8,0.3 to 10.4,"COc1cccc(F)c1CN1CCOC(c2cn(-c3ccc4[nH]nc(-c5ccncc5)c4c3)nn2)C1 (stereo not shown) [Example 251, 5-[4-[4-[(2-FLUORO-6- METHOXYPHENYL)METHYL]- 2-MORPHOLINYL]-1H- 1,2,3-TRIAZOL-1-YL]-3-(4- PYRIDINYL)-1H-INDAZOLE]"
9,≥ 504,"Cc1noc(C)c1-c1n[nH]c2ccc(-c3n[nH]c([C@@H]4CCCN(Cc5c(F)cccc5F)C4)n3)cc12 [Example 303, 5-[5-[1-[(2,6- DIFLUOROPHENYL)METHYL]- 3(R)-PIPERIDINYL]-1H- 1,2,4-TRIAZOL-3-YL]-3-(3,5- DIMETHYL-4-ISOXAZOLYL)- 1H-INDAZOLE]"
10,> 1000,"Fc1cccc(F)c1CN1CCC[C@@H](c2nnc(-c3ccc4[nH]nc(-c5ccc6occc6c5)c4c3)o2)C1 [Example 348, 3-(5-BENZOFURANYL)-5-[5- [1-[(2,6- DIFLUOROPHENYL)METHYL]- 3(R)-PIPERIDINYL]-1,3,4- OXADIAZOL-2-YL]-1H- INDAZOLE]"
